The values that follow come from US12534748B2, “Engineered beta-subunit of tryptophan synthase for production of non-canonical amino acids” (California Institute of Technology, priority 2015, dated 2026).

Assay [1] has as its target T1, Pyrococcus furiosus tryptophan synthase beta-subunit PfTrpB, wild type, SEQ ID NO: 2 (Pyrococcus furiosus, UniProt Q8U093).
T1 sequence (Q8U093 with tags, fused parts or gaps): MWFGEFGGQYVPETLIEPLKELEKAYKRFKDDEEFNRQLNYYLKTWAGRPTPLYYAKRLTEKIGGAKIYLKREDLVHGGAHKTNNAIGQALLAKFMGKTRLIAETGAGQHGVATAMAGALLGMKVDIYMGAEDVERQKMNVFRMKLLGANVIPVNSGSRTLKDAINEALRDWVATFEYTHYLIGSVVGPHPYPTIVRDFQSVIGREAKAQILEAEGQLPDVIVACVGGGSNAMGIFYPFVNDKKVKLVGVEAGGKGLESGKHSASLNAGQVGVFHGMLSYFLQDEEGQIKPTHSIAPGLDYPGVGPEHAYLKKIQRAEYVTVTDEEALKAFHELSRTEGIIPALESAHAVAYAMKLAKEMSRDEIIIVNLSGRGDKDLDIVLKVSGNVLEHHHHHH
Kind of assay: Tryptophan formation from L-serine and indole, kinetics of wild-type PfTrpB. The class given is biochemical. The settings on record: 75° C., pH 8.0, Trp formation at 290 nm. Here is the method: (§1) Cloning, Expression, and Purification of PfTrpA and PfTrpB. The genes encoding PfTrpB (UNIPROT ID Q8U093) and PfTrpA (UNIPROT ID Q8U094) were obtained as gBlocks and cloned into pET22(b)+ for expression in E. coli BL21 E. cloni EXPRESS cells (Lucigen). Heterologous protein expression of PfTrpA and PfTrpB was performed in Terrific Broth with 100 μg/mL ampicillin (TBamp) and induced with 500 mM IPTG (final concentration 1 mM). PfTrpB was purified via a HisTrap HP column. PfTrpA was purified via a Q HP HiTrap column (flow-through), followed by ammonium sulfate precipitation, and hydrophobic interaction chromatography on a phenyl Sepharose HP HiTrap column (FIG. 3).
Kinetics and UV-Vis Spectroscopy. Data were collected between 550 and 250 nm on a UV1800 Shimadzu spectrophotometer (Shimadzu) using 0.25-20 μM of enzyme in 200 mM potassium phosphate (pH 8.0) in a quartz cuvette. Samples were incubated at 75° C. for >3 min to ensure a stable temperature was reached. PfTrpB activity (kcat) was measured by monitoring tryptophan formation at 290 nm using Δe290=1.89 mM^−1·cm^−1.
Selection of the Parent Enzyme, TrpB, from Pyrococcus furiosus. […]

Assay [2] addresses T2, Pyrococcus furiosus tryptophan synthase complex PfTrpS (PfTrpA + PfTrpB) (Pyrococcus furiosus, UniProt Q8U093).
T2 sequence (Q8U093 with tags, fused parts or gaps): T1 sequence (Q8U093 with tags, fused parts or gaps)
T2 sequence (Q8U094 1-248 partner): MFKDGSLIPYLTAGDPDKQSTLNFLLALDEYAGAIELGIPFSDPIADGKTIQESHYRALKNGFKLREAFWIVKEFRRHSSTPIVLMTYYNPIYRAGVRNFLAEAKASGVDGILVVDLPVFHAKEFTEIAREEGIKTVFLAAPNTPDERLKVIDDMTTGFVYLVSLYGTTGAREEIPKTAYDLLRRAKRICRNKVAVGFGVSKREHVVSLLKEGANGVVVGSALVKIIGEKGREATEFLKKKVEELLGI
The assay can be described thus: Tryptophan formation from L-serine and indole, kinetics of PfTrpS complex. The class given is biochemical. The method, then: as §1
(§2) Kinetics and UV-Vis Spectroscopy.
Selection of the Parent Enzyme, TrpB, from Pyrococcus furiosus.

Assay [3] has as its target T3, Thermotoga maritima TrpB variant TmTrpB^0B2 (P14L, P19G, I69V, L274S, T292S) (Thermotoga maritima, UniProt P50909, I69V/L274S/P14L/P19G/T292S).
T3 sequence (P50909 with tags, fused parts or gaps P14L/P19G/I69V/L274S/T292S): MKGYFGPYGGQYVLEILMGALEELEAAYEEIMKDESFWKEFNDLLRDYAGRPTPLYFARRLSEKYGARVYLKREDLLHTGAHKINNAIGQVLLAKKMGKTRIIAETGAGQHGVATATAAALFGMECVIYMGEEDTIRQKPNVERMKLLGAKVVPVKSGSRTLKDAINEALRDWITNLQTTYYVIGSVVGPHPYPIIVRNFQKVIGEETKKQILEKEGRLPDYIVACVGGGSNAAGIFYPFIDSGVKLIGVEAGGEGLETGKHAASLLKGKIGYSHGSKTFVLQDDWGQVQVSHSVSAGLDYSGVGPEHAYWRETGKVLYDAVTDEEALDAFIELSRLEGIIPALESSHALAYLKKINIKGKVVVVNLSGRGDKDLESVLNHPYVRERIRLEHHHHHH
Kind of assay: Tryptophan formation from L-serine and indole, kinetics of TmTrpB^0B2.
Excerpt: as §2
Cloning, expression, and purification of the different orthologs.
The next homolog, TmTrpB, was examined.

For assay [4], the target named is T4, Archaeoglobus fulgidus TrpB variant AfTrpB^0B2 (P25L, E30G, I80V, F285S, T303S, T332A), SEQ ID NO: 22 (Archaeoglobus fulgidus, UniProt O28672, I80V/L285S/P25L/P30G/T303S/T332A).
T4 sequence (O28672 with tags, fused parts or gaps P25L/P30G/I80V/L285S/T303S/T332A): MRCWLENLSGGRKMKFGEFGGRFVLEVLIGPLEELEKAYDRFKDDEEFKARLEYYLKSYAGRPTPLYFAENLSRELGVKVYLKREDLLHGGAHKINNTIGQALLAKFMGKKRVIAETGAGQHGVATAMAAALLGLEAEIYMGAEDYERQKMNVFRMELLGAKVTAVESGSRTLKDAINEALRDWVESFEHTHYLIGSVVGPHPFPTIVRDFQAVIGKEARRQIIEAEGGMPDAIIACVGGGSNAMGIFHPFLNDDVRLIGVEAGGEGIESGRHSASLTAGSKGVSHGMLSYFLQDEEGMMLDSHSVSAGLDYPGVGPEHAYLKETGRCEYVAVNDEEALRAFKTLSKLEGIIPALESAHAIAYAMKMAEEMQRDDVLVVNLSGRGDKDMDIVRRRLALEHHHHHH
The assay can be described thus: Tryptophan formation from L-serine and indole, kinetics of AfTrpB^0B2.

Where “and” joins values, the source holds several entries; their conditions need not be identical. Identical values can stand only once.

For orientation: kcat means the maximal rate divided by the concentration of active sites. As usually defined, the Km is the substrate concentration at which the rate is half of its maximum. As to `c1ccc2[nH]ccc2c1` [indole], the kcat in assay [1] was 0.31 s⁻¹ and 0.31 ± 0.02 s⁻¹; in assay [2] (75° C.), 1.0 s⁻¹; in assay [3] (75° C.) it was 0.11 s⁻¹; in assay [4] (60° C.), 0.51 s⁻¹. Further, the “increase in catalytic efficiency for indole upon complexation” value in assay [2] (PfTrpS relative to PfTrpB) worked out at 12 fold. The Km in assay [2] (read-out: KM, indole, 75° C.) came to 20 µM. In addition, the “kcat relative to wild-type activity” value in assay [3] (of the wild-type activity) came to 10%. The compound further came in with an increase in kcat in assay [4] (compared to wild type) of 7 fold.
